# Ends that are not written are not given here.
# Columns and labels:
# [1] = system: HME, HME/IRIS, MDA-MB-231, MDA-MB-468 and BT549 cells; experiment: Survival of breast cell lines with IRIS peptide, paclitaxel or both; assay type: cell-based, human; details: all cell lines; IRIS peptide alone, 0.5 μM (HME) or 5 μM (others), 24 hours
# Experimental: To investigate whether inactivating BRCA1-IRIS could sensitize TNBC to paclitaxel-induced cell death, HME cells were exposed to 0.5 μM, while HME/IRIS, MDA-MB-231, MDA-MB-468 and BT549 cells were exposed to 5 μM of IRIS peptide alone or with 5, 10 or 20 μM of paclitaxel for 24 hours. […] Again, IRIS peptide alone at these concentrations led to 50% reduction in survival of all cell lines. […] Indeed, in the presence of IRIS peptide >60%, >70% and >90% reduction in the survival of all cell lines in the presence of 5, 10 and 20 μM of paclitaxel, respectively (FIG. 84).
# Cell viability measurement. Cell viability under different experimental conditions was determined using the MTS assay. Briefly, cells (2.5×10^4 cells per well) were seeded in 96-well plates and incubated overnight at 37° C. in 10% humidified CO2 atmosphere. The next day they were incubated with varying concentration of peptide, or inhibitors for 24 hours at 37° C. Cell viability was determined using cell Titer 96® Aqueous (Promega, Madison, Wis., USA) following manufacturer's instructions. Cell viability (%) was expressed as a ratio of treated cells to control cells×100. Growth inhibition was also determined by manually counting cells in five different microscopic fields. Change in cell numbers (fold) was expressed as a ratio of the means of these recording of treated cells compared to control cells×100. Each experiment was done in triplicate, repeated three separate times.
# [2] = system: AKT, ERK, MDM2 and Skp2; experiment: Signalling proteins in SKOV3 and OVCAR3 cells (Western); assay type: cell-based, human
# Excerpt: Finally, to further dissect the IRIS-induced cisplatin resistance pathway, PI3′K/AKT (using […]) and ERK (using PD98059) were inactivated and compared to IRIS peptide in two aggressive ovarian cancer cell lines. […] Phosphorylation of cytoplasmic or nuclear FOXO3a by p-AKT and/or p-ERK promotes MDM2 binding and priming ubiquitylation, which is then followed by Skp2 branching ubiquitylation and FOXO3a degradation (Huang and Tindall, 2011). FOXO was less phosphorylated in LY, PD as well as IRIS-silenced/inactivated SKOV3 or OVCAR3 cells (FIG. 34). […] Consistently, in BRCA1-IRIS silenced/inactivated cells accumulation of unphosphorylated/stabilized FOXO3a was detected. In contrast, FOXO3a was still decreased to different degrees in LY or PD treated cells (FIG. 34).
# [3] = system: BRCA1-IRIS and survivin; experiment: IHC of MDA-MB-468 tumors for BRCA1-IRIS and survivin; assay type: in vivo, mice; details: MDA-MB-468 tumors after treatment
# Excerpt: To study that on the molecular level, sections from these tumors were stained with H&E or for BRCA1-IRIS or survivin using immunohistochemistry. […] Accordingly, it is proposed that inactivating BRCA1-IRIS in TNBC patients might sensitize to lower paclitaxel concentrations to avoid the adverse side effects and also to prevent the recurrence of these tumors at a later point.
# Immunohistochemistry (IHC). Breast tissue microarrays comprised of normal, DCIS, invasive and metastatic were purchased from US Biomax, Inc. Paraffin embedded tissue sections were de-waxed in xylene and rehydrated in alcohol. Antigen-retrieval: for FOXO3a and survivin was by heating the slides in citrate buffer (10 μM, pH 6.0) using microwave (Power level 4) for 10 minutes, for BRCA1-IRIS by incubating slides in pepsin (10 μM) for 20 min at 37° C. Endogenous peroxidase activity was suppressed by treating the slides with 3% H2O2 for 10 min. Slides were then incubated for 1 hour at room temperature with antibodies to human FOXO3a or survivin (Cell Signaling Technology, USA 1:400), or overnight at 4° C. with monoclonal anti-human BRCA1-IRIS (1:75). Vectastain Elite ABC Kit was used to develop the staining using horseradish peroxidase labeled secondary antibodies (1 hour at room temperature).
sequence,measurement,setting,value
RRIRPRPPRLPRPRPRPLPFPRPGIGTRFLCLPQSIYRSELNVYAFGEHILQISKYS [IRIS peptide],reduction in survival,[1],50%
same,AKT and ERK expression and activation,[2],decreased expression and inactivated AKT and ERK
same,BRCA1-IRIS and survivin expression in tumors (IHC),[3],almost completely absent

# Reference: patent publication US9303069B2, “Peptides for treating cancer” (University of Mississippi Medical Center, priority 2014, dated 2016)
